Experimental data published in the Kinase Knowledgebase extract (Sharma et al. 2016).

What was measured:
PIK3CA (human) [1] = molecular target: PIK3CA (human) (UniProt P42336); assay: Assessment of PIK3CA Kinase Activity Using Homogenous Solution Phase Assay
PIK3CA (human) [2] = molecular target: PIK3CA (human) (UniProt P42336); assay: Assessment of PIK3CA Kinase Activity Using One Step Solid Phase Assay

Chain of PIK3CA (human) (P42336 whole entry, looked up): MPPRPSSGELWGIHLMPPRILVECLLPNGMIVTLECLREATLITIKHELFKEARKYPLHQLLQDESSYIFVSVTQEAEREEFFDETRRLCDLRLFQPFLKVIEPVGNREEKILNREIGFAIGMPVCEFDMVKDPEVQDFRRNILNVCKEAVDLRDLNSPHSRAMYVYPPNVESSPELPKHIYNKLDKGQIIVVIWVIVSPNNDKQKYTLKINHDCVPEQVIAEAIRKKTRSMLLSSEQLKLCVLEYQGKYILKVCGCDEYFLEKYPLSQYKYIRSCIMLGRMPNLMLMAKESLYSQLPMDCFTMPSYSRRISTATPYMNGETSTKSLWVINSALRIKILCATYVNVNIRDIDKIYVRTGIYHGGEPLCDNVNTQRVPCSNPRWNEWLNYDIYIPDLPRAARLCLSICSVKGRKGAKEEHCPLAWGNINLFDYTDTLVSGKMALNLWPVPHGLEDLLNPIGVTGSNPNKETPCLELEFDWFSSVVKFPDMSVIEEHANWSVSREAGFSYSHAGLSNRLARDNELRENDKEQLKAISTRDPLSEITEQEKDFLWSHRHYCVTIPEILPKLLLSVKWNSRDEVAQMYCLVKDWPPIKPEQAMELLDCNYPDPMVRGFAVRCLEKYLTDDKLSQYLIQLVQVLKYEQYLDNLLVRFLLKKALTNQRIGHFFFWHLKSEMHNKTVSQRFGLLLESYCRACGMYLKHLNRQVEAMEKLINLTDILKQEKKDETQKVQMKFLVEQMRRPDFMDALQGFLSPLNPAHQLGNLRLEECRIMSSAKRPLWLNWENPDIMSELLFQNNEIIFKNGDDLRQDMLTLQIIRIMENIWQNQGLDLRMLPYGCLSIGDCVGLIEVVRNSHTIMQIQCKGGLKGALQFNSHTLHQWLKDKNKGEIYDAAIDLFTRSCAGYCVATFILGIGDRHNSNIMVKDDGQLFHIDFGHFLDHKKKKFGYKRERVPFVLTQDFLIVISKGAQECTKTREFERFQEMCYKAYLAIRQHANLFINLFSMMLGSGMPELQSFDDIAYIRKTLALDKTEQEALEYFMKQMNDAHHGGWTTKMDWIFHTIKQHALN

IC50 (PIK3CA (human) [1]) | IC50 (PIK3CA (human) [2]) | Compound
< 20 µM | < 20 µM | COc1cccc(-c2cc(N3CCOCC3)nc(N3CCOCC3)n2)c1
< 20 µM | < 20 µM | Oc1cc(-c2cc(Nc3cccnc3)nc(N3CCOCC3)n2)ccc1Cl
